Assay results published in US20230390250A1, “MODULATION OF GLUCAGON-LIKE PEPTIDE 1 AND USES THEREOF” (priority 2020, published 2023).
Entries after “also recorded” stand apart in the source; their conditions may differ.

Tests used:
GLUTag cells = assay: GLP-1 secretion from cultured GLUTag cells treated with LPA and/or LPAR antagonist; assay type: cell-based, mouse; conditions: 10 μM antagonist plus 2.5 μM LPA
Description: We have grown GLUTag cells in culture to test effects of various LPA species and the LPAR 1/2/3 inhibitor Ki-16425. GLUTag cells are a well characterized L-cell line derived from a mouse intestinal tumour, which have been widely used to study the regulation of GLP-1. Briefly, GLUTag cells were grown until 80-90% confluent. Complete medium, containing fetal bovine serum, was replaced with medium containing charcoal[…] dextran treated serum, which removes lipids and hormones that could interfere with testing. […] This indicates a direct inhibitory effect of LPA at physiologically relevant levels on GLP-1 secretion by L-cells, and the ability of a commercially available LPAR antagonist to prevent this.
Experimental Protocol. Briefly, GLUTag cells were grown until 70-80% confluent. Complete medium (low glucose DMEM), containing fetal bovine serum, was replaced with medium containing charcoal-dextran treated serum, which removes lipids and hormones that could interfere with testing. Cells were then treated with medium containing either DMSO as vehicle control (0.1% v/v), 2.5 μM LPA, 10 μM LPAR antagonist, or a combination of the LPA species and inhibitors. For cells treated with both LPA plus LPAR inhibitor: cells were pre-treated with LPA for 30 minutes and then 10 uM LPAR inhibitor was added to the respective wells for a further 2 hours. For cells treated with LPA only, or vehicle only, the total treatment time was 2.5 hours. For cells treated with antagonist only, the treatment time was 2 hours.

DPP4 [1] = assay: DPP4 activity in GLUTag cells (fluorometric kit ab204722); assay type: cell-based, mouse
Description: Briefly, GLUTag cells were grown to produce the recommended quantity needed for the assay according to the manufacturer's protocol (ab204722 Dipeptidyl peptidase IV Activity Assay Kit (Fluorometric)), and then the wells were treated in media containing charcoal-stripped FBS (10%), with either nothing (no treatment control), or vehicle control (0.05% DMSO), or 2.5 uM 18:1-LPA for 30 minutes, and then the inhibitors (as indicated in the graph of FIG. 17) were added to the vehicle wells and the 2.5 uM 18:1-LPA wells at 10 uM concentrations, as indicated on the graph (FIG. 17), for an additional 2 hours. Cells were then harvested according to the manufacturer's protocol, and lysed using reagents from the kit. Charcoal-stripped FBS was used to remove lipids, including LPA, from serum. Experiments were also carried out wherein the FBS was not stripped with charcoal, and the results were not different.
According to the manufacturer, dipeptidyl peptidase IV (DPP4) Activity Assay Kit (Fluorometric) (ab204722) is an assay where DPP4 cleaves a substrate to release a quenched fluorescent group, AMC (7-Amino-4-Methyl Coumarin), which can be easily detected at Ex/Em=360/460 nm. This assay is rapid, simple, sensitive, and reliable, as well as, suitable for high throughput activity screening of DPP4. This kit detects DPP4 activity as low as 3 ρU per well.

DPP4 [2] = assay: DPP4 activity in serum of C57BI/6J mice; assay type: in vivo
Description: Mice were injected with 5 mg/kg Ki16425 or control (10% DMSO in isotonic saline), then injected 10 mins later with 50 mg/kg 1-18:1-LPA or saline (vehicle control), then euthanized 30 minutes later for serum collection and analysis.
(§1) The experimental protocol was as follows: • 1. Mice were administered an LPAR antagonist drug, either by oral gavage (for SARI 00842 or AM966), or by i.p. injection (for Ki-16425) at the doses indicated in the table below. • 2. Control mice were administered only the vehicle (a 10% DMSO solution) given via the same route as the comparison drug was administered. • 3. Ten minutes later, mice were injected i.p. either with isotonic saline, or with 50 mg/kg 18:1-LPA. • 4. Thirty minutes later, mice were euthanized by cervical dyslocation, and blood was collected from the heart for preparation of serum that was stored at −80C until it was analyzed for total GLP-1 concentration by ELISA assay using a GLP-1 enzyme immunoassay kit.

GLP-1 [3] = assay: Circulating GLP-1 in mice injected with LPA, with or without LPAR antagonist pre-treatment; assay type: in vivo; conditions: for prevention of LPA-induced decrease in plasma GLP-1: 5 mg/kg i.p. 10 min before 50 mg/kg 1-oleoyl-2-hydroxy-LPA, n=3 (Example 3, FIG. 4)
Description: We injected mice i.p. with vehicle (10% DMSO in isotonic saline) or 50 mg/kg of 1-oleoyl-2-hydroxy-LPA. Half of the mice injected with LPA were pre-injected with 5 mg/kg Ki-16425 10 minutes prior to receiving LPA. Thirty minutes later, samples of blood were taken by cardiac puncture, and circulating active GLP-1 levels in plasma were analysed by enzyme linked immunosorbent assay.
as §1, with “(for BMS986020,” for “(for”, “SARI 00842, AM966, AM095,” for “SARI 00842”, “or H2L51863030),” for “or AM966),”, “(for Ki-16425, and LPA2-antagonistl)” for “(for Ki-16425)”, “mg/kg LPA.” for “mg/kg 18:1-LPA.”

LPAR3 = biological target: T1, LPAR3 (Homo sapiens, UniProt Q9UBY5); conditions: cited from earlier work
T1 sequence (Q9UBY5 1-353): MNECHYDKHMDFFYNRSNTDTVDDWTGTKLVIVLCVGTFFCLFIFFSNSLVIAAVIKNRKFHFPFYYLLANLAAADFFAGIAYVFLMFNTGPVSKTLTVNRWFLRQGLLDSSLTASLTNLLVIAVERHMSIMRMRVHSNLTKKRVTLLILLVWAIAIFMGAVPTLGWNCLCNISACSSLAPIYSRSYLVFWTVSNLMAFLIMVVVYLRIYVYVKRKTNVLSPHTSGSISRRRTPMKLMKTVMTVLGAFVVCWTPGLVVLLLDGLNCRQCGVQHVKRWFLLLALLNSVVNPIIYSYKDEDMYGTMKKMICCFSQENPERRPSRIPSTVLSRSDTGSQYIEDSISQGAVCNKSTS

LPAR2 = LPAR2 (Homo sapiens, UniProt Q9HBW0); conditions: cited from earlier work
LPAR2, sequence (Q9HBW0 whole entry, species assumed): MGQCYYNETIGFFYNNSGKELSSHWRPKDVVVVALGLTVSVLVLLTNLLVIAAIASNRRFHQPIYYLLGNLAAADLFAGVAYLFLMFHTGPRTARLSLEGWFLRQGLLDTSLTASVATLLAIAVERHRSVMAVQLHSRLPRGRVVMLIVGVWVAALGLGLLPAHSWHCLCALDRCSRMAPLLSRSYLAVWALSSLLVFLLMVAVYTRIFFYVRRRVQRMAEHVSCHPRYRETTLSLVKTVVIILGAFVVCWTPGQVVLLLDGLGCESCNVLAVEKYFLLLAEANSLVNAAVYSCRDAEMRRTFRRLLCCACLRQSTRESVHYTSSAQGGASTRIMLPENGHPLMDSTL

insulin secretion = conditions: prior study, Rancoule et al. 2013, cited from earlier work
GLP-1 [4] = assay: Blood GLP-1 in RT-SAKO mice (elevated endogenous LPA) treated with Ki-16425; assay type: in vivo; conditions: 30 minutes after injection
Source text: Our laboratory has created a new genetic mouse model to study the isolated effects of obesity on kidney health. This model was not created to test LPA metabolism or to study GLP-1 regulation, but we have made important discoveries on these topics. We have made mice that lack the enzyme adipose triglyceride lipase (ATGL) in renal tubule cells, and have named these mice renal tubule-specific adipose triglyceride lipase knockout (or RT-SAKO) mice. These mice develop fatty kidneys, and as a side effect of changes in kidney cell metabolism, their kidneys make more LPA. As a result, RT-SAKO mice develop elevations in blood lysophosphatidic acid levels by 16-18 weeks of age (FIG. 5, left panel). They also have low circulating levels of GLP-1 (FIG. 5, right panel).

LPAR1 = LPAR1 (Homo sapiens, UniProt Q92633); conditions: cited from earlier work
LPAR1, sequence (Q92633 whole entry, species assumed): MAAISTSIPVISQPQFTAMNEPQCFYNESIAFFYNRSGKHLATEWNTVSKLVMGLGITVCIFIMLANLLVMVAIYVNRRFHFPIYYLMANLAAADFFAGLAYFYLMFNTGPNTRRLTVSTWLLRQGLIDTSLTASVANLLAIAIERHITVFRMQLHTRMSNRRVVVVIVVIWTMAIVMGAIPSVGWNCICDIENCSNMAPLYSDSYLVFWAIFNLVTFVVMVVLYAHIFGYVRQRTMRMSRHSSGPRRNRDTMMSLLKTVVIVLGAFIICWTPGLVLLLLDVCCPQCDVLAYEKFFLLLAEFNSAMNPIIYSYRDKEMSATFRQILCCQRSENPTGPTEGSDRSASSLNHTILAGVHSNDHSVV

[5] = Glucose intolerance and insulin secretion in fatty-kidney (RT-SAKO) mice; assay type: in vivo

SMILES: Cc1noc(-c2ccc(CSCCC(=O)O)cc2)c1NC(=O)OC(C)c1ccccc1Cl (stereo not drawn) [Ki16425]
- rescue of LPA-inhibited GLP-1 secretion by LPAR antagonist (GLUTag cells): larger effect than the others; also recorded: prevented that decrease
- rescue of LPA-inhibited GLP-1 secretion by LPAR antagonist (GLUTag cells; listed as Ki-16425): completely prevents this decrease; also recorded: restored
- effect of 18:1-LPA combined with LPAR antagonist on DPP4 activity in GLUTag cells (DPP4 [1]; 2.5 uM 18:1-LPA 30 minutes, then 10 uM antagonist 2 hours): did not significantly affect
- effect of LPAR antagonist alone on DPP4 activity in GLUTag cells (DPP4 [1]; 10 uM antagonist, 2 hours): did not significantly affect
- effect of antagonist on DPP4 activity in mouse serum (DPP4 [2]; 5 mg/kg i.p.): did not significantly affect; also recorded: lack of effect; also recorded: not significantly affected
- effect of 18:1-LPA combined with antagonist on DPP4 activity in mouse serum (DPP4 [2]; antagonist 5 mg/kg i.p. then 50 mg/kg 18:1-LPA): did not affect
- prevention of LPA-induced decrease in plasma GLP-1 (GLP-1 [3]): significantly abrogates
- prevention of LPA-induced decrease in plasma GLP-1 (GLP-1 [3]; listed as Ki-16425): partially restored; also recorded: partially prevented; also recorded: significantly prevented
- rescue of the fall in blood GLP-1 levels caused by LPA (GLP-1 [3]; antagonist 5 mg/kg i.p. 10 min before 50 mg/kg 18:1-LPA i.p., serum at 30 min (Examples 6, 8)): completely abrogated; also recorded: Complete rescues; also recorded: restored to normal levels
- blood GLP-1 with antagonist alone versus vehicles (GLP-1 [3]; antagonist 5 mg/kg i.p., no LPA): indistinguishable from mice treated only with the vehicles
- Ki (LPAR3): 0.93 µM
- level at which LPAR3 is antagonized (LPAR3): low micromolar levels
- Ki (LPAR2): 6.5 µM
- beta-islet cell number (insulin secretion; mice on a high-fat diet): increased
- prevention of LPA-impaired insulin secretion (insulin secretion): prevented
- restoration of blood GLP-1 levels in RT-SAKO mice (GLP-1 [4]): restores GLP-1 levels; also recorded: come back up to close to normal
- Ki (LPAR1): 0.34 µM
- glucose intolerance and impaired insulin secretion [5]: rescues
